Results from patent US11420935B2, “Bicyclic compounds” (Vivace Therapeutics, Inc., priority 2019, dated 2022).

System: 8×TBD luciferase reporter (YAP) in HEK293T cells
Experiment: YAP Reporter Assay (8×TBD firefly luciferase reporter)
Format: cell-based
Conditions: Homo sapiens, HEK-293T, 24 h, read-out: Firefly Luciferase IC50 (μM)
Procedure: HEK293T cells stably transfected with 8×TBD luciferase reporter and pRLTK in 384-well plates were treated with the test compounds, starting from 3 μM (final concentration in assay plate), 1:3 dilution, and 10 points in quadruplicates. Post 24-hr incubation with compounds at 37° C. and 5% CO2, cells were lysed and 8×TBD-driven firefly luciferase and control TK-driven renilla luciferase activities were measured using Promega Dual-Luciferase Reporter Assay System.
Reagents: The reagents used for this study are: DMEM: Invitrogen #11960077, Dual-Glo Luciferase Assay System: Promega-E2980, Puromycin Dihydrochloride: Invitrogen-A1113803, 384-well plate: PerkinElmer-6007480, L-GLUTAMINE: Invitrogen-25030164, Hygromycin B: Invitrogen-10687010, and Penicillin-Streptomycin: Merk-TMS-AB2-C
Media: The media used for this assay were: Culture Medium: DMEM+1 ug/mL puromycin+200 ug/mL hygromycin (with 10% FBS+1 mM L-glutamine); and Assay Medium: DMEM (with 10% FBS+1 mM L-glutamine+1×P/S).
Cell Plating: The appropriate media was warmed at 37° C. by water bath: Culture Medium, Assay Medium, 1*D-PBS, 0.05% trypsin-EDTA. The cells were trypsinized after removing all media, then washed with 1*sterile D-PBS and then with 2 ml 0.05% trypsin-EDTA. The cells were then incubated at RT for one minute. Then 10 ml/75 cm2 flask Assay Medium was added to each flask. Using a 10 ml pipette, the cells were then gently resuspended in the media, until the clumps completely disappeared. The cells were then transferred into 50 ml centrifuge tubes and were centrifuged at 800 rpm for 5 mins. The medium was removed and the cells were resuspended with Assay Medium. An aliquot of cells was used to count the cell density (cells/ml). The cell suspension was then diluted with Assay Medium to a concentration of 6×10^4 cells/ml. 50 ul cells suspension was then plated to 384-well plate (PerkinElmer-6007480), 3×10^3 cells/well and the cells were incubated in an incubator at 37° C., 5% CO2.
Compound Treatment: In the afternoon (incubation of the plate with 3-4 hrs), the test compounds were added by Echo, starting from 3 uM (final concentration in the assay plate), 1:3 dilution, 10 points, quadruplicates. The plate was placed at 37° C., 5% CO2 incubator for 24 hrs.
Detection: The Dual-Glo Luciferase Reagent was prepared by transferring the contents of one bottle of Dual-Glo Luciferase Buffer to one bottle of Dual-Glo Luciferase Substrate to create the Dual-Glo Luciferase Reagent. Mixing was performed by inversion until the substrate was thoroughly dissolved. After mixing, the reagent was aliquoted into 15 ml tubes. In the afternoon (24 hrs post compound treatment), the DMEM+medium in the 384 well plates were aspirated by Microplate Washer.
Measuring firefly luciferase activity: 20 ul Dual-Glo Luciferase Reagent was added to the 384-well plates. The plates were protected from light to prevent interference with the assay. The plates were shaken for 1 min followed centrifuging plates at 1000 rpm for 30 seconds. After waiting at least 10 minutes, the firefly luminescence was measured by Envision.
Measuring renilla luciferase activity: 20 ul Stop-Glo Reagent was added to the 384-well plates. The plates were shaken for 1 min and then centrifuged at 1000 rpm for 30 seconds. After waiting at least 10 minutes, the renilla luminescence was measured by Envision.
Compound IC50 and maximum inhibition on the firefly luciferase and renilla luciferase activities were reported separately.

Compound	IC50 [µM]
CC(C)NC(=O)c1ccc2c(Oc3ccc(Cl)cc3)cccc2c1 [Compound 1, 5-(4-chlorophenoxy)-N-isopropyl-2-naphthamide]	< 0.1
CC(C)NC(=O)c1ccc2c(Oc3cccc(Cl)c3)cccc2c1 [Compound 2, 5-(3-chlorophenoxy)-N-isopropyl-2-naphthamide]	< 0.1
CC(C)NC(=O)c1ccc2c(Oc3ccc(Cl)c(Cl)c3)cccc2c1 [Compound 3, 5-(3,4-dichlorophenoxy)-N-isopropyl-naphthalene-2-carboxamide]	< 0.1
CC(C)NC(=O)c1cnc2c(Oc3ccc(C(F)(F)F)cc3)cccc2c1 [Compound 13, N-isopropyl-8-[4-(trifluoromethyl)phenoxy]quinoline-3-carboxamide]	< 0.1
N#CCNC(=O)c1ccc2c(Oc3ccc(C(F)(F)F)cc3)cccc2c1 [Compound 22, N-(cyanomethyl)-5-(4-(trifluoromethyl)phenoxy)-2-naphthamid]	< 0.1
N#CCCNC(=O)c1ccc2c(Oc3ccc(C(F)(F)F)cc3)cccc2c1 [Compound 23, N-(2-cyanoethyl)-5-(4-(trifluoromethyl)phenoxy)-2-naphthamide]	< 0.1

Same assay, conditions: Homo sapiens, HEK-293T; HEK293T cells stably transfected with 8×TBD luciferase reporter and pRLTK; 24-hr incubation; firefly luciferase activity; read-out: Firefly Luciferase IC50

Compound	IC50 [µM]
CC(C)NC(=O)c1ccc2c(Oc3ccc(C(F)(F)F)cc3)cccc2c1 [Compound 4, N-isopropyl-5-(4-(trifluoromethyl)phenoxy)-2-naphthamide]	< 0.1
CS(=O)(=O)NC(=O)c1ccc2c(Oc3ccc(C(F)(F)F)cc3)cccc2c1 [Compound 5, N-(methylsulfonyl)-5-(4-(trifluoromethyl)phenoxy)-2-naphthamide]	< 0.1
CS(=O)(=O)NC(=O)c1ccc2c(Oc3ccc(Cl)c(Cl)c3)cccc2c1 [Compound 6, 5-(3,4-dichlorophenoxy)-N-(methylsulfonyl)-2-naphthamide]	< 0.1
CNS(=O)(=O)c1ccc2c(Oc3ccc(C(F)(F)F)cc3)cccc2c1 [Compound 7, N-methyl-5-(4-(trifluoromethyl)phenoxy)naphthalene-2-sulfonamide]	< 0.1
CC(C)NC(=O)c1ccc2c(Oc3ccc(F)c(F)c3)cccc2c1 [Compound 8, 5-(3,4-difluorophenoxy)-N-isopropyl-2-naphthamide]	< 0.1
CNS(=O)(=O)c1ccc2c(Oc3ccc(Cl)c(Cl)c3)cccc2c1 [Compound 9, 5-(3,4-dichlorophenoxy)-N-methylnaphthalene-2-sulfonamide]	< 0.1
CS(=O)(=O)NC(=O)c1ccc2c(Oc3ccc(F)c(F)c3)cccc2c1 [Compound 10, 5-(3,4-difluorophenoxy)-N-(methylsulfonyl)-2-naphthamide]	< 0.1
CC(C)NC(=O)c1ccc2c(Oc3ccc(C(F)(F)F)cc3)nccc2c1 [Compound 11, N-isopropyl-1-[4-(trifluoromethyl)phenoxy]isoquinoline-6-carboxamide]	< 0.1
C[C@H](CO)NC(=O)c1ccc2c(Oc3ccc(C(F)(F)F)cc3)nccc2c1 [Compound 12, N-[(1R)-2-hydroxy-1-methyl-ethyl]-1-[4-(trifluoromethyl)phenoxy]isoquinoline-6-carboxamide]	< 0.1
O=C(NC(CO)c1ccccn1)c1cnc2c(Oc3ccc(C(F)(F)F)cc3)cccc2c1 (stereo not shown) [Compound 14, N-[2-hydroxy-1-(2-pyridyl)ethyl]-8-[4-(trifluoromethyl)phenoxy]quinoline-3-carboxamide]	< 0.1
C[C@H](CO)NC(=O)c1cnc2c(Oc3ccc(C(F)(F)F)cc3)cccc2c1 [Compound 15, N-[(1R)-2-hydroxy-1-methyl-ethyl]-8-[4-(trifluoromethyl)phenoxy]quinoline-3-carboxamide]	< 0.1
COC[C@@H](C)NC(=O)c1cnc2c(Oc3ccc(C(F)(F)F)cc3)cccc2c1 [Compound 16, N-[(1R)-2-methoxy-1-methyl-ethyl]-8-[4-(trifluoromethyl)phenoxy]quinoline-3-carboxamide]	0.1 to 1
C[C@@H](NC(=O)c1cnc2c(Oc3ccc(C(F)(F)F)cc3)cccc2c1)c1ccccn1 [Compound 17, N-[(1R)-1-(2-pyridyl)ethyl]-8-[4-(trifluoromethyl)phenoxy]quinoline-3-carboxamide]	0.1 to 1
COC[C@H](C)NC(=O)c1cnc2c(Oc3ccc(C(F)(F)F)cc3)cccc2c1 [Compound 18, N-[(1S)-2-methoxy-1-methyl-ethyl]-8-[4-(trifluoromethyl)phenoxy]quinoline-3-carboxamide]	< 0.1
C[C@H](NC(=O)c1cnc2c(Oc3ccc(C(F)(F)F)cc3)cccc2c1)c1ccccn1 [Compound 19, N-[(1S)-1-(2-pyridyl)ethyl]-8-[4-(trifluoromethyl)phenoxy]quinoline-3-carboxamide]	< 0.1
C#CCNC(=O)c1ccc2c(Oc3ccc(C(F)(F)F)cc3)cccc2c1 [Compound 20, N-(prop-2-yn-1-yl)-5-(4-(trifluoromethyl)phenoxy)-2-naphthamide]	< 0.1
C#CCCNC(=O)c1ccc2c(Oc3ccc(C(F)(F)F)cc3)cccc2c1 [Compound 21, N-(but-3-yn-1-yl)-5-(4-(trifluoromethyl)phenoxy)-2-naphthamide]	< 0.1
C[C@H](CO)NC(=O)c1ccc2c(Oc3ccc(C(F)(F)F)cc3)cccc2c1 [Compound 24, (R)—N-(1-hydroxypropan-2-yl)-5-(4-(trifluoromethyl)phenoxy)-2-naphthamide]	< 0.1
O=C(NC(CO)c1ccccn1)c1ccc2c(Oc3ccc(C(F)(F)F)cc3)cccc2c1 (stereo not shown) [Compound 25, N-(2-hydroxy-1-(pyridin-2-yl)ethyl)-5-(4-(trifluoromethyl)phenoxy)-2-naphthamide]	< 0.1
COC[C@@H](C)NC(=O)c1ccc2c(Oc3ccc(C(F)(F)F)cc3)cccc2c1 [Compound 26, (R)—N-(1-methoxypropan-2-yl)-5-(4-(trifluoromethyl)phenoxy)-2-naphthamide]	< 0.1
C[C@@H](NC(=O)c1ccc2c(Oc3ccc(C(F)(F)F)cc3)cccc2c1)c1ccccn1 [Compound 27, N-[(1R)-1-(2-pyridyl)ethyl]-5-[4-(trifluoromethyl)phenoxy]naphthalene-2-carboxamide]	0.1 to 1
COC[C@H](C)NC(=O)c1ccc2c(Oc3ccc(C(F)(F)F)cc3)cccc2c1 [Compound 28, (S)—N-(1-methoxypropan-2-yl)-5-(4-(trifluoromethyl)phenoxy)-2-naphthamide]	< 0.1
C[C@H](NC(=O)c1ccc2c(Oc3ccc(C(F)(F)F)cc3)cccc2c1)c1ccccn1 [Compound 29, (S)—N-(1-(pyridin-2-yl)ethyl)-5-(4-(trifluoromethyl)phenoxy)-2-naphthamide]	< 0.1
CNCCNC(=O)c1ccc2c(Oc3ccc(C(F)(F)F)cc3)cccc2c1 [Compound 30, N-(2-(methylamino)ethyl)-5-(4-(trifluoromethyl)phenoxy)-2-naphthamide]	0.1 to 1
CN(C#N)CCNC(=O)c1ccc2c(Oc3ccc(C(F)(F)F)cc3)cccc2c1 [Compound 31, N-(2-(N-methylcyanamido)ethyl)-5-(4-(trifluoromethyl)phenoxy)-2-naphthamide]	< 0.1
CC(C)NC(=O)c1cc2cccc(Oc3ccc(C(F)(F)F)cc3)c2s1 [Compound 32, N-isopropyl-7-(4-(trifluoromethyl)phenoxy)benzo[b]thiophene-2-carboxamide]	< 0.1
C[C@H](CO)NC(=O)c1cc2cccc(Oc3ccc(C(F)(F)F)cc3)c2s1 [Compound 33, (R)—N-(1-hydroxypropan-2-yl)-7-(4-(trifluoromethyl)phenoxy)benzo[b]thiophene-2-carboxamide]	< 0.1
CNCCCNC(=O)c1ccc2c(Oc3ccc(C(F)(F)F)cc3)cccc2c1 [Compound 34, N-(3-(methylamino)propyl)-5-(4-(trifluoromethyl)phenoxy)-2-naphthamide]	< 0.1
